Data taken from patent US20050026911A1, “Benzotriazapinone salts and methods for using same” (priority 2003, published 2005).
Each block holds one compound with its values, some of them ahead of it.

Biological target: T1, gastrin (CCK2) receptors (Rattus norvegicus, UniProt P30553)
T1 construct: The stomach was excised and flushed with ca. 1 ml of unbuffered physiological saline solution; from tissue; host or cells: isolated whole stomach of immature rats (ca. 21 days old)
T1 sequence (P30553 1-452): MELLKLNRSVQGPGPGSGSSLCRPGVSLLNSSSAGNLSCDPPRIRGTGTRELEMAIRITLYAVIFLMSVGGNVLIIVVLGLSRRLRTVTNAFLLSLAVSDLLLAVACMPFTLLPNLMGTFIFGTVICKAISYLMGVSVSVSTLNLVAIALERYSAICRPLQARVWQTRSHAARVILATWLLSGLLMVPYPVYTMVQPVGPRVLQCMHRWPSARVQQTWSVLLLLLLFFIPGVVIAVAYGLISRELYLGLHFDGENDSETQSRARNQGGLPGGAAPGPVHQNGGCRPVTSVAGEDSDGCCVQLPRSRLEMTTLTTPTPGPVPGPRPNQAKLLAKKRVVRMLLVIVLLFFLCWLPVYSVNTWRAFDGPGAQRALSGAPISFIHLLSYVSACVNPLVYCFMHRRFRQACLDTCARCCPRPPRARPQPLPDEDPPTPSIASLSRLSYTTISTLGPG
Assay: gastrin (CCK2) antagonist activity in an immature rat stomach assay
Conditions: pentagastrin dose-response curves, acid secretion, read-out: pKB rat stomach (converted)
Experimental: The compounds of the examples were tested for gastrin (CCK2) antagonist activity in an immature rat stomach assay. The procedure was as follows:
The oesophagus of immature rats (33-50 g, ca. 21 days old) was ligated at the level of the cardiac sphincter and the duodenal sphincter was cannulated. The stomach was excised and flushed with ca. 1 ml of unbuffered physiological saline solution. The fundus was punctured and cannulated. A further 4-5 ml of unbuffered solution was flushed through the stomach to ensure the preparation was not leaking. […] The stomach was continuously perfused at a rate of 1 ml min^−1 with unbuffered solution gassed with 100% O2 with the perfusate passing over an internally referenced pH-electrode fixed 12 cm above the stomach.
After 120 min of stabilisation the drugs were added directly to the serosal solution in the organ bath and after a further 60 min cumulative pentagastrin dose-response curves were started.

SMILES: CC(C)(C)C(=O)CN1C(=O)N(CC(=O)Nc2cccc(-c3nn[nH]n3)c2)N=C(C2CCCC2)c2ccccc21 [Example 10, 2-[5-Cyclopentyl-1-(3,3-dimethyl-2-oxo-butyl)-2-oxo-1,2-dihydro-3H-1,3,4-benzotriazepin-3-yl]-[3-(2H-tetrazol-5-yl)-phenyl]-acetamide]
Kb: 89.1 nM

SMILES: CC(C)(C)C(=O)CN1C(=O)N(CC(=O)Nc2cccc(S(=O)(=O)CC(=O)O)c2)N=C(C2CCCCC2)c2ccccc21 [Example 50]
Kb: 11 nM

SMILES: CNc1cccc(NC(=O)CN2N=C(C3CCCCC3)c3ccccc3N(CC(=O)C3CCCC3)C2=O)c1 [Example 57, 2-[5-Cyclohexyl-1-(2-cyclopentyl-2-oxo-ethyl)-2-oxo-1,2-dihydro-3H-1,3,4-benzotriazepin-3-yl]-N-(3-methylaminophenyl)-acetamide]
Kb: 1.17 nM

SMILES: CC(C)(C)C(=O)CN1C(=O)N(CC(=O)Nc2ccc3c(c2)N(CC(=O)O)CC3)N=C(C2CCCCC2)c2ccccc21 [Example 34, (6-{2-[5-Cyclohexyl-1-(3,3-dimethyl-2-oxo-butyl)-2-oxo-1,2-dihydro-3H-1,3,4-benzotriazepin-3-yl]-acetylamino}-2,3-dihydro-indol-1-yl)-acetic acid]
Kb: 15.8 nM

SMILES: CC(Nc1cccc(NC(=O)CN2N=C(C3CCCCC3)c3ccccc3N(CC(=O)C(C)(C)C)C2=O)c1)C(=O)O (racemic) [Example 75, 2-(3{2-[5-Cyclohexyl-1-(3,3-dimethyl-2-oxo-butyl)-2-oxo-1,2-dihydro-3H-1,3,4-benzotriazepin-3-yl]-acetylamino}-phenylamino)-propionic acid]
Kb: 209 nM

SMILES: CC(C)(C)C(=O)CN1C(=O)N(CC(=O)Nc2cccc(SCc3nn[nH]n3)c2)N=C(C2CCCCC2)c2ccccc21 [Example 86, 2-[5-Cyclohexyl-1-(3,3-dimethyl-2-oxo-butyl)-2-oxo-1,2-dihydro-3H-1,3,4-benzotriazepin-3-yl]-N-[3-(4H-tetrazol-5-ylmethylsutfanyl)-phenyl]-acetamide]
Kb: 3.39 nM

The next lines start with the values.

Kb: 37.2 nM
SMILES: CC(C)(C)C(=O)CN1C(=O)N(CC(=O)Nc2cccc(-c3csc(C(=O)O)n3)c2)N=C(C2CCCCC2)c2ccccc21 [Example 108, 4-(3-{2-[5-Cyclohexyl-1-(3,3-dimethyl-2-oxo-butyl)-2-oxo-1,2-dihydro-3H-1,3,4-benzotriazepin-3-yl]-acetylamino}-phenyl)-thiazole-2-carboxylic acid]

Kb: 129 nM
SMILES: CC(C)(C)C(=O)CN1C(=O)N(CC(=O)Nc2cccc(CO)n2)N=C(C2CCCCC2)c2ccccc21 [Example 106, 2-[5-Cyclohexyl-1-(3,3-dimethyl-2-oxo-butyl)-2-oxo-1,2-dihydro-3H-1,3,4-benzotriazepin-3-yl]-N-(6-hydroxymethyl-pyridin-2-yl)-acetamide]

Kb: 3.31 nM
SMILES: Cc1nc(-c2cccc(NC(=O)CN3N=C(C4CCCCC4)c4ccccc4N(CC(=O)C(C)(C)C)C3=O)c2)cs1 [Example 107]

Kb: 70.8 nM
SMILES: CC(=O)N/C(=C\c1cccc(NC(=O)CN2N=C(C3CCCCC3)c3ccccc3N(CC(=O)C(C)(C)C)C2=O)c1)C(=O)O [Example 155, 2-Acetylamino-3-(3-{2-[5-cyclohexyl-1-(3,3-dimethyl-2-oxo-butyl)-2-oxo-1,2-dihydro-3H-1,3,4-benzotriazepin-3-yl]-acetylamino}-phenyl)-acrylic acid]

Kb: 37.2 nM
SMILES: O=C(O)CSc1cccc(NC(=O)CN2N=C(C3CCCCC3)c3ccccc3N(CC(=O)C3CC3)C2=O)c1 [Example 120, [3-(2-{5-Cyclohexyl-1-(2-cyclopropyl-2-oxo-ethyl)-2-oxo-1,2-dihydro-3H-1,3,4-benzotriazepin-3-yl]-acetylamino}-phenylsulfanyl)-acetic acid]

Kb: 0.575 nM
SMILES: O=C(O)CSc1cccc(NC(=O)CN2N=C(C3CCCCC3)c3ccccc3N(CC(=O)C3CCCCC3)C2=O)c1 [Example 100, (3-{2-[5-Cyclohexyl-1-(2-cyclohexyl-2-oxo-ethyl)-2-oxo-1,2-dihydro-3H-1,3,4-benzotriazepin-3-yl]-acetylamino}-phenylsulfanyl)-acetic acid]
